Each structure is given as a SMILES string.

What all share (format): cell-based
The test system of test [1] is soil's native microbial community. As to the kind of experiment: Phosphate solubilization in soil consortia (soil as inoculum in NBRIP media). Particulars: relative to soil not contacted with QC. The source says:
To determine if a test compound, QC, alters phosphate solubilization in a soil's native microbial community, dried and sieved soil was used as a bacterial inoculum in NBRIP media with and without QC.

For test [2], the system named is nifHpro::luciferase Azotobacter vinelandii reporter strain. The test is described as follows: nifHpro::luciferase bioreporter assay for nitrogen fixation. The settings on record: 1 μM, 24 h, relative to control bacteria not contacted. On the procedure: Three hundred base pairs upstream of the ATG of the nifHDK of Azotobacter vinelandii (nifHipro) was cloned in frame, upstream of luciferase in pVSP61 (kanR). Azotobacter vinelandii (Lipman ATCC® BAA-1303) was transformed with the reporter plasmid with triparental mating, Transformants were selected for on nitrogen-free kanamycin plates and confirmed with PCR and sequencing.
Five milliliters of nifHpro::luciferase Bioreporter strain #171 was grown overnight in autoclaved, nitrogen-free medium (Burks, HiMedia M707) at starting OD600=0.02 with 1 ug/mL Kanamycin in sterile 50 mL flasks. Chemical treatments were dissolved in 100% EtOH and added at appropriate concentrations, keeping the volume constant. The solvent was no more than 2% of the final culture volume, and solvent only controls were included in each experiment.
After 24 h, the growth density each culture was read in a clear, flat-bottomed microplate by adding 180 μl to each well (flasks were measured in triplicate) and measuring absorbance at 600 nm in a microplate reader. […]
The luminescence of each well was read on an iD3 plate reader (Molecular Devices). Luminescence of each well (reported as RLU, Relative Light Unit) was divided by its OD600 in order to adjust for culture density.

In test [3] the test system is nifHpro::luciferase Azotobacter vinelandii reporter line. As to the kind of experiment: Nitrogenase (nifH) activity with nifHpro::luciferase Azotobacter vinelandii reporter line. Particulars: 10 μM to 0.001 μM in DMSO, 21 hours, over controls, n=9 experiments, FIG. 6. On the procedure:
Gibson Assembly was used to clone the luciferase gene (ordered from IDT) into pE_Gm and LR into pVSP61 (plasmids provided by Doug Dahlbeck at Staskawicz Lab, UC Berkeley). Standard triparental mating was used with pRK600 (provided by Doug Dahlbeck at Staskawicz Lab, UC Berkeley) to obtain the final reporter strain of Azotobacter vinelandii transformed with reporter plasmid.
nifHpro::luciferase Azotobacter vinelandii were grown for 24 hours in 50 mL liquid Burks —N media (HiMedia Laboratories) with 1 ng/μL Kanamycin, shaking at 100 RPM under lights at ˜30° C. After 24 hours, supernatant was spun down 12000 G for two minutes to collect cells. After supernatant was removed, cells were washed with cleared Burks —N liquid media supernatant, resuspended, and centrifuged again at 12000 G. This process was repeated, for a total of two washes.
Resuspended cells were combined with Burks —N media with 1 ng/μL Kanamycin, to obtain a fresh culture at OD 0.1. 50 mL shake flasks were then inoculated with 5 mL of this culture, plus appropriate chemistry, in the scheme that follows. A stock solution of Quercetin was made in DMSO. […]
After 21 hours, 50 mL flasks were removed from the shaker. […] Plates were inserted into plate reader and luminescence of each well was analyzed.

As for `O=c1c(O)c(-c2ccc(O)c(O)c2)oc2cc(O)cc(O)c12` [QC, quercetin], in test [1], the “amount of detectable orthophosphate in the growth media of soil-inoculated cultures” value is “increased”. In addition, the “luminescence (nitrogen fixation)” value in test [2] is on record as “significant increase”. As for `O=c1c(O)c(-c2ccc(O)c(O)c2)oc2cc(O)cc(O)c12` [Formula Id], the “activation of nifHpro::luciferase bioreporter (nitrogenase gene expression)” value in test [3] is listed as “activated”.
